Experimental data published in patent publication US6380185B1, “N-substituted benzoyl indoles as estrogenic agents” (American Home Products Corporation, priority 1999, dated 2002).

Tests used:
estrogen receptor (ER) = biological target: T1, estrogen receptor (ER) (Homo sapiens, UniProt P03372); experiment: Estrogen Receptor Binding/Competition Assay ([3H]17β-estradiol displacement)
T1 construct: expressed in transfected cells; host or cells: CHO cells (ribosome-free cytosol)
T1 sequence (P03372 1-595): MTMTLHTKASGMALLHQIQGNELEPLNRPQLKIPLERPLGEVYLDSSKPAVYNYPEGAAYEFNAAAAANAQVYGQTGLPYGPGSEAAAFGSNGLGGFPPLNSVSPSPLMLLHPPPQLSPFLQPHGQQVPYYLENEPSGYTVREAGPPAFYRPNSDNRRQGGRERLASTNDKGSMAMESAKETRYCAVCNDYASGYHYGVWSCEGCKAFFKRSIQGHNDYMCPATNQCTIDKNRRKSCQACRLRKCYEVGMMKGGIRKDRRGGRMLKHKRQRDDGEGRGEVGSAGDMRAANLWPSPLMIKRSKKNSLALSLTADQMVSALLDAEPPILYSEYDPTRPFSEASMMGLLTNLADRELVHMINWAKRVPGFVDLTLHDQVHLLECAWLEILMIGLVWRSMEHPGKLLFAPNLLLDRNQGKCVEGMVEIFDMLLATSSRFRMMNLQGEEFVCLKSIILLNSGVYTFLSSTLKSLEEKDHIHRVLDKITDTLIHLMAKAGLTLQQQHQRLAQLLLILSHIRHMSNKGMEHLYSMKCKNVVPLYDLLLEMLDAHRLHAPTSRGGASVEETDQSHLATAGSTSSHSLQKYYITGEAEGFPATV

estrogen receptor = biological target: T2, estrogen receptor (Homo sapiens, UniProt P03372); experiment: Transfection Assay; assay type: cell-based
T2 sequence (P03372 1-595): T1 sequence (P03372 1-595)

SMILES | melting point [°C] | IC50 (estrogen receptor (ER)) [nM] | Transfection Assay % Control (estrogen receptor; Concentration 1 × 10^−6 M + 1 nM estradiol) [%] | Transfection Assay % Control (estrogen receptor; Concentration 1 × 10^−6 M, compound alone) [%]
Cc1c(-c2ccc(O)cc2)n(C(=O)c2ccc(OCCN3CCCCC3)cc2)c2ccc(O)cc12 [Example No. 2, [5-Hydroxy-2-(4-hydroxy-phenyl)-3-methyl-indol-1-yl][4-(2-piperidin-1-yl-ethoxy)-phenyl]-methanone] | 127 to 130 | 200 | 13 | 0
Cc1c(-c2ccc(OCc3ccccc3)cc2)n(C(=O)c2ccc(OCCN3CCCCC3)cc2)c2ccc(OCc3ccccc3)cc12 [compound 1, [5-Benzyloxy-2-(4-benzyloxy-phenyl)-3-methyl-indol-1-yl]-[4-(2-piperidin-1-yl-ethoxy)-phenyl]-methanone] | 48 to 51 | – | – | –
